Literature values in US20140073694A1, “CYSTAMINE ANALOGUES FOR THE TREATMENT OF PARKINSON'S DISEASE” (UNIVERSITE LAVAL, priority 2011, published 2014).

Test system: Huntington's disease patients
Settings: cited from earlier work

## NCCS.O=C(O)C(O)C(O)C(=O)O (centres unmarked) [cysteamine bitartrate]
  clinical efficacy: clinical efficacy was not demonstrated
Dose escalation 10 to 70 mg/kg per day
  tolerable dose: 20 mg/kg per day
